One test has as its target Cannabinoid receptor 2 (Mus musculus, UniProt P47936). The test is described as follows: Displacement of [3H]CP-55940 from cannabinoid CB2 receptor in mouse spleen membrane. Type of test: cell membranes.
The target of another test is Cannabinoid receptor 1 (Rattus norvegicus, UniProt P20272). Type of test: cell membranes, Brain, Membrane.

For orientation: Ki means a dissociation constant, usually derived from enzyme kinetics or from competition with a known ligand.

Chain of Cannabinoid receptor 2 (P47936 whole entry): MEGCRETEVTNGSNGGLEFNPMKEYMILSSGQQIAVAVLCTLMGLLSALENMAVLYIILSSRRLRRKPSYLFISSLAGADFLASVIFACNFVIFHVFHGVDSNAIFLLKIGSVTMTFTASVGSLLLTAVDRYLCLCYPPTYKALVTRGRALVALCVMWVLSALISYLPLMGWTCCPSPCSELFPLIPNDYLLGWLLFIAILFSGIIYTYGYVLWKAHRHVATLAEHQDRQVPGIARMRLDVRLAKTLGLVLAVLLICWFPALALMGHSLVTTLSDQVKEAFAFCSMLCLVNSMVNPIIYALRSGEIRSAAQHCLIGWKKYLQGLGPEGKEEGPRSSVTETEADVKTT
Chain of Cannabinoid receptor 1 (P20272 whole entry): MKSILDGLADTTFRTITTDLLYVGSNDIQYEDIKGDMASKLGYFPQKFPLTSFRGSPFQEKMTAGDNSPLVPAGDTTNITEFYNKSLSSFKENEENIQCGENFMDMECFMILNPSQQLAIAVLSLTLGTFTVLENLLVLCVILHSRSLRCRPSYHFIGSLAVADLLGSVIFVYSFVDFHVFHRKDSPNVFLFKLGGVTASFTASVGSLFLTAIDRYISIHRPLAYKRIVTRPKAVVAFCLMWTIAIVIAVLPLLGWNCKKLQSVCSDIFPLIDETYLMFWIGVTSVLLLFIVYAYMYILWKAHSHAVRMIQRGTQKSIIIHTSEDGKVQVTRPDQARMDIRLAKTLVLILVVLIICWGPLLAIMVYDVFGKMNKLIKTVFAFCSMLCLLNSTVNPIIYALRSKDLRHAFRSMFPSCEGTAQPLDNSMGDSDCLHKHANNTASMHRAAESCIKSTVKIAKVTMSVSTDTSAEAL
Description for Cannabinoid receptor 1: Displacement of [3H]CP-55940 from cannabinoid CB1 receptor in rat brain membrane in presence of phenylmethanesulfonyl fluoride

As for `C[C@H](CO)NC(=O)CCC/C=C\C/C=C\C/C=C\C/C=C\CCCCCc1ccccc1`, the Ki on Cannabinoid receptor 2 turned out to be 241 nM; on Cannabinoid receptor 1 it was 76.6 nM.

Turning to `C[C@H](CO)NC(=O)CCC/C=C\C/C=C\C/C=C\C/C=C\CCCCc1ccccc1`, the values for the Ki at Cannabinoid receptor 2 and at Cannabinoid receptor 1 were 1120 nM and 13.3 nM, respectively.

As to `C[C@H](CO)NC(=O)CCC/C=C\C/C=C\C/C=C\C/C=C\CCCCc1cccc(Cl)c1`, the results for the Ki on Cannabinoid receptor 2 and at Cannabinoid receptor 1 were 605 nM and 89.4 nM, respectively.

As for `C[C@H](CO)NC(=O)CCC/C=C\C/C=C\C/C=C\C/C=C\CCCCc1cccc(Br)c1`, the Ki on Cannabinoid receptor 2 stood at 1050 nM; at Cannabinoid receptor 1, 95.3 nM.

With `C[C@H](CO)NC(=O)CCC/C=C\C/C=C\C/C=C\C/C=C\CCCCc1cccc(I)c1`, the results for the Ki at Cannabinoid receptor 2 and at Cannabinoid receptor 1 were 1560 nM and 533 nM, respectively.

As to `C[C@H](CO)NC(=O)CCC/C=C\C/C=C\C/C=C\C/C=C\CCCCc1ccoc1`, the Ki at Cannabinoid receptor 2 is 1030 nM; on Cannabinoid receptor 1, 12 nM.

`C[C@H](CO)NC(=O)CCC/C=C\C/C=C\C/C=C\C/C=C\CCCCCc1ccoc1`: the inhibition constant (Ki) at Cannabinoid receptor 2 was 869 nM; at Cannabinoid receptor 1, 170 nM.

Take `C[C@H](CO)NC(=O)CCC/C=C\C/C=C\C/C=C\C/C=C\CCCCCc1ccco1`: the inhibition constant Ki at Cannabinoid receptor 2 is 3260 nM; at Cannabinoid receptor 1, 561 nM.

In the case of `C[C@H](CO)NC(=O)CCC/C=C\C/C=C\C/C=C\C/C=C\Cc1ccccc1`, the results for the inhibitory constant (Ki) on Cannabinoid receptor 2 and on Cannabinoid receptor 1 were 826 nM and 349 nM, respectively.

For the compound `C[C@H](CO)NC(=O)CCC/C=C\C/C=C\C/C=C\C/C=C\CCc1ccccc1`, the Ki on Cannabinoid receptor 2 amounted to 335 nM; on Cannabinoid receptor 1, 241 nM.

Turning to `C[C@H](CO)NC(=O)CCC/C=C\C/C=C\C/C=C\C/C=C\CCCCc1ccc(Br)cc1`, the Ki at Cannabinoid receptor 2 came out at 250 nM; on Cannabinoid receptor 1, 8.9 nM.

Consider `C[C@H](CO)NC(=O)CCC/C=C\C/C=C\C/C=C\C/C=C\CCCCc1cccc(C(F)(F)F)c1`, for which the Ki at Cannabinoid receptor 2 worked out at 2040 nM; on Cannabinoid receptor 1 it was 284 nM.

For `Cc1cccc(CCCC/C=C\C/C=C\C/C=C\C/C=C\CCCC(=O)N[C@H](C)CO)c1`, the Ki on Cannabinoid receptor 2 stood at 840 nM; on Cannabinoid receptor 1 it was 344 nM.

At Cannabinoid receptor 1, `C[C@H](CO)NC(=O)CCC/C=C\C/C=C\C/C=C\C/C=C\CCCCc1ccccc1Br` showed an inhibition constant (Ki) of 170 nM.

Consider `C[C@H](CO)NC(=O)CCC/C=C\C/C=C\C/C=C\C/C=C\CCCCc1cccc2ccccc12`, for which the results for the Ki at Cannabinoid receptor 2 and at Cannabinoid receptor 1 were 4000 nM and 678 nM, respectively.

Turning to `C[C@H](CO)NC(=O)CCC/C=C\C/C=C\C/C=C\C/C=C\CCCCc1ccco1`, the Ki at Cannabinoid receptor 2 is 750 nM; at Cannabinoid receptor 1, 325 nM.

Turning to `C[C@H](CO)NC(=O)CCC/C=C\C/C=C\C/C=C\C/C=C\CCCc1ccccc1`, the Ki on Cannabinoid receptor 2 was determined as 534 nM; on Cannabinoid receptor 1, 69.2 nM.

Values taken from ChEMBL document CHEMBL1151792, “Development of novel tail-modified anandamide analogs” (Bioorg Med Chem Lett, 2008).
